From PubChem BioAssay (NCI)
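Method: 48-hour compound exposure of cells in 96-well plates, five concentrations, linear interpolation of endpoints. Abbreviation: GI50, concentration required for 50% inhibition of growth. The concentration for full growth arrest is given as TGI.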

Columns and labels:
Experiment in all cases: NCI-60 cell line screen, 48 h
[1] = test system: SNB-78 CNS
[2] = test system: HOP-18 NSCLC
[3] = test system: OVCAR-4 ovarian
[4] = test system: OVCAR-3 ovarian
[5] = test system: UO-31 renal
[6] = test system: 786-0 renal
[7] = test system: SNB-19 CNS
[8] = test system: IGROV1 ovarian
[9] = test system: SN12C renal
[10] = test system: A549 NSCLC
[11] = test system: CAKI-1 renal
[12] = test system: OVCAR-5 ovarian
[13] = test system: SNB-75 CNS
[14] = test system: DLD-1 colon
[15] = test system: SK-MEL-28 melanoma
[16] = test system: LXFL 529 NSCLC
[17] = test system: HCC-2998 colon
[18] = test system: KM12 colon
[19] = test system: SF-295 CNS
[20] = test system: KM20L2 colon
[21] = test system: MALME-3M melanoma
[22] = test system: TK-10 renal
[23] = test system: SW-620 colon
[24] = test system: NCI-H522 lung
[25] = test system: EKVX NSCLC
[26] = test system: U251 CNS
[27] = test system: M14 melanoma
[28] = test system: SK-MEL-5 melanoma
[29] = test system: DMS 273 small cell lung
[30] = test system: NCI-H226 lung
[31] = test system: SF-539 CNS
[32] = test system: SR leukemia
[33] = test system: OVCAR-8 ovarian
[34] = test system: HCT-116 colon
[35] = test system: NCI-H23 lung
[36] = test system: RPMI-8226 leukemia
[37] = test system: UACC-62 melanoma
[38] = test system: HCT-15 colon
[39] = test system: NCI-H460 lung
[40] = test system: COLO 205 colon
[41] = test system: LOX IMVI melanoma
[42] = test system: RXF 393 renal
[43] = test system: SF-268 CNS
[44] = test system: SK-MEL-2 melanoma
[45] = test system: HOP-62 NSCLC
[46] = test system: HL-60(TB) leukemia
[47] = test system: MOLT-4 leukemia
[48] = test system: CCRF-CEM leukemia
[49] = test system: ACHN renal
[50] = test system: A498 renal
[51] = test system: HT29 colon
[52] = test system: HOP-92 NSCLC
[53] = test system: M19-MEL melanoma
[54] = test system: SK-OV-3 ovarian
[55] = test system: K-562 leukemia
[56] = test system: DMS 114 small cell lung

SMILES: N.N.N.N.N#N.N#N.[Cl-].[Os+6]
- GI50 [1]: > 100 µM
- TGI [1]: > 100 µM
- GI50 [2]: 23.1 µM
- TGI [2]: > 100 µM
- GI50 [3]: > 100 µM
- TGI [3]: > 100 µM
- GI50 [4]: > 100 µM
- TGI [4]: > 100 µM
- GI50 [5]: > 100 µM
- TGI [5]: > 100 µM
- GI50 [6]: > 100 µM
- TGI [6]: > 100 µM
- GI50 [7]: > 100 µM
- TGI [7]: > 100 µM
- GI50 [8]: > 100 µM
- TGI [8]: > 100 µM
- GI50 [9]: > 100 µM
- TGI [9]: > 100 µM
- GI50 [10]: > 100 µM
- TGI [10]: > 100 µM
- GI50 [11]: > 100 µM
- TGI [11]: > 100 µM
- GI50 [12]: > 100 µM
- TGI [12]: > 100 µM
- GI50 [13]: > 100 µM
- TGI [13]: > 100 µM
- GI50 [14]: > 100 µM
- TGI [14]: > 100 µM
- GI50 [15]: > 100 µM
- TGI [15]: > 100 µM
- GI50 [16]: > 100 µM
- TGI [16]: > 100 µM
- GI50 [17]: > 100 µM
- TGI [17]: > 100 µM
- GI50 [18]: > 100 µM
- TGI [18]: > 100 µM
- GI50 [19]: > 100 µM
- TGI [19]: > 100 µM
- GI50 [20]: > 100 µM
- TGI [20]: > 100 µM
- GI50 [21]: > 100 µM
- TGI [21]: > 100 µM
- GI50 [22]: > 100 µM
- TGI [22]: > 100 µM
- GI50 [23]: > 100 µM
- TGI [23]: > 100 µM
- GI50 [24]: > 100 µM
- TGI [24]: > 100 µM
- GI50 [25]: > 100 µM
- TGI [25]: > 100 µM
- GI50 [26]: > 100 µM
- TGI [26]: > 100 µM
- GI50 [27]: > 100 µM
- TGI [27]: > 100 µM
- GI50 [28]: > 100 µM
- TGI [28]: > 100 µM
- GI50 [29]: > 100 µM
- TGI [29]: > 100 µM
- GI50 [30]: > 100 µM
- TGI [30]: > 100 µM
- GI50 [31]: > 100 µM
- TGI [31]: > 100 µM
- GI50 [32]: > 100 µM
- TGI [32]: > 100 µM
- GI50 [33]: > 100 µM
- TGI [33]: > 100 µM
- GI50 [34]: > 100 µM
- TGI [34]: > 100 µM
- GI50 [35]: > 100 µM
- TGI [35]: > 100 µM
- GI50 [36]: > 100 µM
- TGI [36]: > 100 µM
- GI50 [37]: > 100 µM
- TGI [37]: > 100 µM
- GI50 [38]: > 100 µM
- TGI [38]: > 100 µM
- GI50 [39]: > 100 µM
- TGI [39]: > 100 µM
- GI50 [40]: > 100 µM
- TGI [40]: > 100 µM
- GI50 [41]: > 100 µM
- TGI [41]: > 100 µM
- GI50 [42]: > 100 µM
- TGI [42]: > 100 µM
- GI50 [43]: > 100 µM
- TGI [43]: > 100 µM
- GI50 [44]: > 100 µM
- TGI [44]: > 100 µM

SMILES: Cc1nc2ccccc2c(=O)n1/N=C(\N=Nc1ccc(Cl)cc1)c1cccc(-c2ccco2)c1
- TGI [2]: > 100 µM
- TGI [45]: 62.6 µM
- TGI [5]: 43.1 µM
- TGI [6]: > 100 µM
- TGI [8]: > 100 µM
- TGI [9]: > 100 µM
- TGI [46]: 69.4 µM
- TGI [10]: > 100 µM
- TGI [11]: 98.4 µM
- TGI [47]: > 100 µM
- TGI [14]: > 100 µM
- TGI [15]: 58.7 µM
- TGI [16]: > 100 µM
- TGI [48]: 88.2 µM
- TGI [19]: 94.6 µM
- TGI [20]: > 100 µM
- TGI [22]: > 100 µM
- TGI [23]: > 100 µM
- TGI [24]: 54.4 µM
- TGI [49]: > 100 µM
- TGI [25]: > 100 µM
- TGI [50]: > 100 µM
- TGI [51]: > 100 µM
- TGI [52]: 55.4 µM
- TGI [26]: > 100 µM
- TGI [27]: > 100 µM
- TGI [28]: 57.4 µM
- TGI [53]: > 100 µM
- TGI [54]: > 100 µM
- TGI [29]: > 100 µM
- TGI [31]: 98.4 µM
- TGI [33]: > 100 µM
- TGI [34]: 95.5 µM
- TGI [35]: 65.2 µM
- TGI [55]: > 100 µM
- TGI [36]: > 100 µM
- TGI [37]: 87 µM
- TGI [38]: > 100 µM
- TGI [39]: > 100 µM
- TGI [40]: 89.4 µM
- TGI [41]: > 100 µM
- TGI [42]: 76.8 µM
- TGI [43]: > 100 µM

SMILES: O=C(CC1(O)C(=O)Nc2ccccc21)c1ccc(Cl)c(Cl)c1 (stereo not given)
- TGI [1]: > 100 µM
- TGI [3]: > 100 µM
- TGI [5]: > 100 µM
- TGI [6]: > 100 µM
- TGI [7]: > 100 µM
- TGI [8]: > 100 µM
- TGI [9]: > 100 µM
- TGI [46]: > 100 µM
- TGI [10]: > 100 µM
- TGI [11]: > 100 µM
- TGI [12]: > 100 µM
- TGI [47]: > 100 µM
- TGI [13]: > 100 µM
- TGI [14]: > 100 µM
- TGI [15]: > 100 µM
- TGI [16]: > 100 µM
- TGI [17]: > 100 µM
- TGI [48]: > 100 µM
- TGI [56]: > 100 µM
- TGI [19]: > 100 µM
- TGI [20]: > 100 µM
- TGI [23]: > 100 µM
- TGI [24]: > 100 µM
- TGI [49]: > 100 µM
- TGI [25]: > 100 µM
- TGI [50]: > 100 µM
- TGI [51]: > 100 µM
- TGI [52]: > 100 µM
- TGI [26]: > 100 µM
- TGI [27]: > 100 µM
- TGI [28]: > 100 µM
- TGI [53]: > 100 µM
- TGI [54]: > 100 µM
- TGI [29]: > 100 µM
- TGI [30]: > 100 µM
- TGI [31]: > 100 µM
- TGI [32]: > 100 µM
- TGI [34]: > 100 µM
- TGI [35]: > 100 µM
- TGI [55]: > 100 µM
- TGI [36]: > 100 µM
- TGI [37]: > 100 µM
- TGI [38]: > 100 µM
- TGI [39]: > 100 µM
- TGI [40]: > 100 µM
- TGI [41]: > 100 µM
- TGI [42]: > 100 µM
- TGI [43]: > 100 µM
- TGI [44]: > 100 µM
